pIC50: −log10 of the molar value.

Consider one molecule from publication PMC10938783, “A novel pan-PI3K inhibitor KTC1101 synergizes with anti-PD-1 therapy by targeting tumor suppression and immune activation” (Molecular Cancer, 2024).

The subject of data set [1] is kinase panel comprising 50 kinases. Description: Kinase profiling, panel of 50 kinases. Format: biochemical. The conditions noted are these: 1 μM. As to the method:
Procedures for the preparation of KTC1101 are described in supplemental data. To investigate the PI3K inhibitory efficacy of KTC1101, its impact on the kinase activity of PI3K isoforms was assessed using the Adapta kinase assay as previously reported. Initially, a dilution series of 2.5 µL KTC1101 or DMSO (control) was prepared and added to the respective wells of a 384-well plate. Subsequently, optimized 2.5 µL kinase solutions, including PIK3CA/PIK3R1, PIK3CB/PIK3R1, PIK3CG, and PIK3CD/PIK3R1, were introduced to each well. After adding the kinase solutions, 5 µL ATP and PIP2:PS lipid kinase substrate was introduced into each well and incubated for 1 h at room temperature. This step allows for the initiation and progression of the kinase reaction. Following the incubation, a detection solution (5 µL) was added to all the wells. This solution contained 30 mM EDTA to stop the kinase reaction, 6 nM Eu-labeled anti-ADP antibody, and a 3 × concentration of Alexa Fluor® 647 ADP tracer. The EDTA effectively terminates the kinase reaction, while the anti-ADP antibody and ADP tracer are crucial for the detection of ADP produced during the kinase reaction, which correlates with PI3K activity. […] Finally, the fluorescence of each well was measured using a Multi-Mode Microplate Reader (Spark, Tecan). […]

The subject of data set [2] is PC3, TMD8, HSC2, HSC4, CAL33 cells. Description: Cell proliferation MTT assay, five tumor cell lines. The data set is classed as cell-based. As to conditions: Homo sapiens; cell viability assay; read-out: IC50 range over PC3, TMD8, HSC2, HSC4, CAL33 cells. The procedure:
(§1) Cell proliferation was measured by MTT assay as previously described. The cells were seeded in a volume of 200 μL/well in 96-well plates. The next day, cells were treated with DMSO or a series of concentrations of KTC1101. After a 48-h incubation period, 20 μL of MTT (5 mg/mL) was added to each well. After further incubation for 4 h at 37 °C, the absorbance at 490 nm was measured using an iMark microplate reader (BIO-RAD, Hercules, CA, USA).

The subject of another data set is HBC-5. Description: JFCR39 sulforhodamine B growth assay. The data set is classed as cell-based. As to conditions: Homo sapiens, HBC5; HBC-5, 48 h. As to the method:
(§2) JFCR39 drug discovery system was used to measure the growth inhibitory activities and identify the target of KTC1101. The JFCR39 panel consists of 39 cell lines seeded in 96-well plates. After 48-h treatment with KTC1101, cell growth was measured using the sulforhodamine B assay. […] The deviation of log GI50 for each cell line from the average log GI50 across the JFCR39 panel was plotted as a fingerprint. MG-MID (mean of Log GI50 values) represents the average log GI50 for all 39 cell lines. The most sensitive and least sensitive cell lines were identified by calculating the difference in their log GI50 values (Range) and the difference between the most sensitive cell line and the average GI50 on the JFCR39 panel (Delta). The fingerprint of KTC1101 was compared with the fingerprints of reference compounds in the database. The Pearson correlation coefficient (r) was calculated (n = 39).
A general note: In SRB staining, fixed cells bind dye roughly in proportion to their protein.

For another data set, the system named is St-4. Put plainly: JFCR39 sulforhodamine B growth assay. Format: cell-based. As to conditions: Homo sapiens, St-4, 48 h. As to the method: as §2
The test system of a further data set is MKN1. Put plainly: JFCR39 sulforhodamine B growth assay. The conditions noted are these: Homo sapiens, MKN-1; MKN1, 48 h. The data set is classed as cell-based. As to the method:
as §2

Another data set deals with ACHN. Put plainly: JFCR39 sulforhodamine B growth assay. Format: cell-based. The conditions noted are these: Homo sapiens, 48 h. The procedure: as §2
The next data set concerns MKN-A. Put plainly: JFCR39 sulforhodamine B growth assay. Format: cell-based. The conditions noted are these: Homo sapiens, 48 h. The procedure: as §2
Another data set deals with PC-3. Put plainly: JFCR39 sulforhodamine B growth assay. As to conditions: Homo sapiens, PC-3, 48 h. Format: cell-based. The procedure:
as §2

The next data set relates to DMS273. Put plainly: JFCR39 sulforhodamine B growth assay. The conditions noted are these: Homo sapiens, DMS-273; DMS273, 48 h. The data set is classed as cell-based. As to the method:
as §2

In a further data set the test system is NCI-H23. Description: JFCR39 sulforhodamine B growth assay. Format: cell-based. As to conditions: Homo sapiens, NCI-H23, 48 h. As to the method: as §2
The test system of the next data set is SF-268. Description: JFCR39 sulforhodamine B growth assay. Format: cell-based. As to conditions: Homo sapiens, SF-268, 48 h. The procedure:
as §2

In a further data set the test system is HCT-15. Description: JFCR39 sulforhodamine B growth assay. The data set is classed as cell-based. As to conditions: Homo sapiens, HCT-15, 48 h. As to the method:
as §2

Another data set concerns HBC-4. Description: JFCR39 sulforhodamine B growth assay. Format: cell-based. The conditions noted are these: Homo sapiens, HBC4; HBC-4, 48 h. As to the method: as §2
For another data set, the system named is U251. Put plainly: JFCR39 sulforhodamine B growth assay. The data set is classed as cell-based. As to conditions: Homo sapiens, U-251; U251, 48 h. As to the method: as §2
In a further data set the test system is S24 cells. Put plainly: Cell proliferation MTT assay. The data set is classed as cell-based, mouse. As to conditions: 48 h. As to the method:
as §1
Background: Tetrazolium dyes change colour on reduction, which living cells bring about.

A further data set deals with B16 cells. Put plainly: Cell proliferation MTT assay. Format: cell-based, mouse. The conditions noted are these: B16 cells in vitro, 48 h. The procedure: as §1
The next data set has as its system B16 tumors. Description: B16 syngeneic model in C57BL/6 mice. The data set is classed as in vivo, mouse.
A further data set concerns TMD8 tumors. Description: TMD8 xenograft in NSG mice. Format: in vivo, mouse. As to the method: BALB/c nude, NSG, and C57BL/6J mice were obtained from Tianjin Medical University. The housing temperature was controlled, ranging from 20.5–24 °C, and humidity was monitored but not controlled ranging from 30–70%. The 12-h daily light cycle was from 06:00 to 18:00. To generate a murine subcutaneous tumor model, PC3 and HSC2 cells were subcutaneously injected into the right lateral flank of 4- to 5-week-old male BALB/c nude mice. TMD8, CAL33, and S24 cells were subcutaneously injected into the right lateral flank of 4- to 5-week-old male NSG mice. When tumors reached a volume of 300–500 mm^3, they were excised, diced into 2 mm × 2 mm × 2 mm pieces, and implanted into the right flanks of BALB/c nude or NSG mice. Tumors were allowed to grow to a volume of 100 mm^3, and then the animals were randomly divided into several groups. Each group of five mice was treated with either vehicle or KTC1101 (25, 50, or 100 mg/kg, PO). Tumor size was measured every 3 d or 4 d until the endpoint. The tumor volume was calculated using the following formula: length × width × height/2. At the end of the experimental period, mice were euthanized by overdosing on pentobarbital sodium, and the tumors were removed. Tumor tissue was formalin-fixed and paraffin-embedded for histological analysis.

A word on the pIC50: it is the negative decadic logarithm of the IC50, by convention in mol/L. By GI50 is commonly meant the concentration that inhibits growth by half. The low end stands for more potent growth inhibition, the high end for less potent growth inhibition. In the case of `COc1cc(N)cc2c1nc(C(F)F)n2-c1nc(N2CCCOCC2)nc(N2CCOCC2)n1` [KTC1101, 2-(difluoromethyl)-4-methoxy-1-(4-morpholino-6-(1,4-oxazepan-4-yl)-1,3,5-triazin-2-yl)-1H-benzo[d]imidazol-6-amine], in data set [1], the “inhibition rate, all four PI3K targets” value is “greater than 90%”. Moreover, the “inhibition rate, other kinases of the panel” value in data set [1] is “less than 50%”. In addition, the pIC50 in data set [2] is 6.89 to 7.70. For the same molecule, the GI50 with HBC-5 is 14.5 nM; with St-4, 105 nM; in the data set with MKN1, 10 nM; with ACHN, 21.4 nM; with MKN-A, 145 nM; in the data set with PC-3 it was 15.8 nM. Moreover, the GI50 in the data set on DMS273 was 11 nM; with NCI-H23, 25.7 nM; with SF-268, 18.2 nM; in the data set with HCT-15, 17.8 nM; in the data set with HBC-4, 24.5 nM; with U251, 38 nM. Moreover, in the data set on S24 cells, the sensitivity in vitro result is listed as “showed sensitivity”. Moreover, the anti-proliferative activity entry in the data set on B16 cells was “strong anti-proliferative activity”. Further, the “tumor growth over 14 days” value is “comparably suppressed tumor growth” in the data set with B16 tumors (B16, 50 mg/kg, daily) and “comparably suppressed tumor growth” with B16 tumors (B16, 100 mg/kg, 3 days on/4 days off). The mouse body weight entry with B16 tumors (B16, 100 mg/kg 3 days on/4 days off and 50 mg/kg daily, 14 days) is “without significant changes in mouse body weight”. For the same molecule, the mouse survival result with B16 tumors (B16, intermittent regimen 100 mg/kg 3 days on/4 days off vs continuous) is on record as “notably prolonged mouse survival”. In the data set on TMD8 tumors (100 mg/kg PO), the tumor growth entry is on record as “slowed tumor progression”. In addition, the “efficacy versus ZSTK474 and Copanlisib” value with TMD8 tumors (100 mg/kg and 125 mg/kg PO) was “marginally outperformed those of 200 mg/kg ZSTK474 orally and was comparable to 14 mg/kg Copanlisib intravenously”.
